Common to all, as to assay type: in vivo
The test system of one assay is Chilo suppressalis. Briefly: Example B1: activity against Chilo suppressalis (striped rice stemborer), artificial diet. The conditions noted are these: for percent control (mortality, anti-feedant effect or growth inhibition) at 200 ppm: 144 h, L2 larvae, 6 days after infestation, read-out: control (at least one of mortality, anti-feedant effect, growth inhibition). Here is the method:
24-well microtiter plates with artificial diet were treated with aqueous test solutions prepared from 10′000 ppm DMSO stock solutions by pipetting. After drying, the plates were infested with L2 larvae (6-8 per well). The samples were assessed for mortality, anti-feeding effect, and growth inhibition in comparison to untreated samples 6 days after infestation. Control of Chilo suppressalis by a test sample is given when at least one of the categories mortality, anti-feedant effect, and growth inhibition is higher than the untreated sample.

The test system of another assay is Diabrotica balteata. Briefly: Example B2: activity against Diabrotica balteata (corn root worm), maize sprouts. The conditions noted are these: 96 h, L2 larvae, 4 days after infestation, read-out: effect in at least one of the two categories (mortality or growth inhibition). As to the method:
Maize sprouts placed onto an agar layer in 24-well microtiter plates were treated with aqueous test solutions prepared from 10′000 ppm DMSO stock solutions by spraying. After drying, the plates were infested with L2 larvae (6 to 10 per well). The samples were assessed for mortality and growth inhibition in comparison to untreated samples 4 days after infestation. The following compounds gave an effect of at least 80% in at least one of the two categories (mortality or growth inhibition) at an application rate of 200 ppm: P1, P2, P3, P4, P5, P7, P8, P9, P10, P11, P12, P13, P14, P15, P16, P17, P18, P19, P20, P21, P22, P23, P24, P25, P26, P27, P28, P29, P30, P31, P33, P34, P35, P36, P37, P38, P39, P40, P41, P42, P43, P45, P46, P47, P48, P49, P50, P51, P52, P53, P55, P57, P58, P59, P60, P61, P62, P63, P64, P65, P66, P67, P69, P71, P75, P81, P82, P83.

In the next assay the test system is Plutella xylostella. Briefly: Example B5: activity against Plutella xylostella (diamond back moth), artificial diet, eggs. As to conditions: 192 h, 8 days after infestation, read-out: effect in at least one of the two categories (mortality or growth inhibition). As to the method:
24-well microtiter plates with artificial diet were treated with aqueous test solutions prepared from 10′000 ppm DMSO stock solutions by pipetting. After drying, Plutella eggs were pipetted through a plastic stencil onto a gel blotting paper and the plate was closed with it. The samples were assessed for mortality and growth inhibition in comparison to untreated samples 8 days after infestation. The following compounds gave an effect of at least 80% in at least one of the two categories (mortality or growth inhibition) at an application rate of 200 ppm: P1, P2, P3, P4, P5, P6, P7, P8, P9, P10, P11, P12, P13, P14, P15, P16, P17, P18, P19, P20, P21, P22, P23, P24, P25, P26, P27, P28, P29, P30, P31, P32, P33, P34, P35, P36, P37, P38, P39, P40, P41, P42, P43, P44, P45, P46, P47, P48, P49, P50, P51, P52, P53, P54, P55, P57, P58, P59, P60, P61, P62, P63, P64, P65, P66, P67, P69, P70, P71, P72, P73, P74, P75, P77, P78, P81, P82, P83.

The test system of a further assay is Spodoptera littoralis. The assay can be described thus: Example B6: activity against Spodoptera littoralis (Egyptian cotton leaf worm), cotton leaf discs. The conditions noted are these: foliar; for percent control (mortality, anti-feedant effect or growth inhibition) at 200 ppm: 72 h, L1 larvae, 3 days after infestation, read-out: control (at least one of mortality, anti-feedant effect, growth inhibition). As to the method:
Cotton leaf discs were placed onto agar in 24-well microtiter plates and sprayed with aqueous test solutions prepared from 10′000 ppm DMSO stock solutions. After drying the leaf discs were infested with five L1 larvae. The samples were assessed for mortality, anti-feeding effect, and growth inhibition in comparison to untreated samples 3 days after infestation. Control of Spodoptera littoralis by a test sample is given when at least one of the categories mortality, anti-feedant effect, and growth inhibition is higher than the untreated sample.

The structures appear in SMILES notation.

For `C[C@H](Nc1ncnc2c(C(F)(F)F)cc(Cl)cc12)c1ncnn1-c1ncc(C#N)s1` [WO 22/268648 P10, reference compound], the mortality (in general, the percentage killed) at 12.5 ppm with Chilo suppressalis (12.5 ppm) was found to be 0%.

As for `C[C@H](Nc1ncnc2c(C(F)(F)F)cc(Cl)cc12)c1ncnn1-c1cc(C(=O)NC2(C#N)CC2)ncn1` [Compound P22, 6-[5-[(1S)-1-[[6-chloro-8-(trifluoromethyl)quinazolin-4-yl]amino]ethyl]-1,2,4-triazol-1-yl]-N-(1-cyanocyclopropyl)pyrimidine-4-carboxamide], the percent control (mortality, anti-feedant effect or growth inhibition) at 200 ppm in the assay on Chilo suppressalis and in the assay with Spodoptera littoralis was not below 80% each time. Also, the percent effect (mortality or growth inhibition) at 200 ppm with Diabrotica balteata and with Plutella xylostella was not below 80% each time.

For the molecule `C[C@H](Nc1ncnc2c(C(F)(F)F)cc(Cl)cc12)c1ncnn1-c1cc(C(=O)N(C)CC2CC2)ncn1` [Compound P78, 6-[5-[(1S)-1-[[6-chloro-8-(trifluoromethyl)quinazolin-4-yl]amino]ethyl]-1,2,4-triazol-1-yl]-N-(cyclopropylmethyl)-N-methyl-pyrimidine-4-carboxamide], the percent effect (mortality or growth inhibition) at 200 ppm in the assay with Plutella xylostella is not below 80%.

With `C[C@H](Nc1ncnc2c(C(F)(F)F)cc(Cl)cc12)c1ncnn1-c1cc(C(=O)NC2(C)CS(=O)(=O)C2)ncn1` [Compound P44, 6-[5-[(1S)-1-[[6-chloro-8-(trifluoromethyl)quinazolin-4-yl]amino]ethyl]-1,2,4-triazol-1-yl]-N-(3-methyl-1,1-dioxo-thietan-3-yl)pyrimidine-4-carboxamide], the percent effect (mortality or growth inhibition) at 200 ppm in the assay with Plutella xylostella is not below 80%.

Regarding `CC(Nc1ncnc2c(I)cc(Cl)cc12)c1nccnc1-c1cc(C(N)=O)ncn1` (stereo not drawn) [Compound P58, 6-[3-[1-[(6-chloro-8-iodo-quinazolin-4-yl)amino]ethyl]pyrazin-2-yl]pyrimidine-4-carboxamide], the percent control (mortality, anti-feedant effect or growth inhibition) at 200 ppm in the assay on Chilo suppressalis and in the assay on Spodoptera littoralis was not below 80% in each case. Further, the percent effect (mortality or growth inhibition) at 200 ppm in the assay with Diabrotica balteata and with Plutella xylostella was not below 80% each time.

In the case of `C[C@H](Nc1ncnc2c(C(F)(F)F)cc(Cl)cc12)c1ncnn1-c1cc(C(=O)NC(C)(C#N)C2CC2)ncn1` (stereo partly drawn) [Compound P42, 6-[5-[(1S)-1-[[6-chloro-8-(trifluoromethyl)quinazolin-4-yl]amino]ethyl]-1,2,4-triazol-1-yl]-N-(1-cyano-1-cyclopropyl-ethyl)pyrimidine-4-carboxamide], the percent control (mortality, anti-feedant effect or growth inhibition) at 200 ppm in the assay with Chilo suppressalis and with Spodoptera littoralis was not below 80% each time. The percent effect (mortality or growth inhibition) at 200 ppm in the assay on Diabrotica balteata and in the assay with Plutella xylostella was not below 80% in each case.

As to `CONC(=O)c1cc(-n2ncnc2[C@H](C)Nc2ncnc3c(C(F)(F)F)cc(Cl)cc23)ncn1` [Compound P28, 6-[5-[(1S)-1-[[6-chloro-8-(trifluoromethyl)quinazolin-4-yl]amino]ethyl]-1,2,4-triazol-1-yl]-N-methoxy-pyrimidine-4-carboxamide], the percent control (mortality, anti-feedant effect or growth inhibition) at 200 ppm in the assay on Chilo suppressalis and with Spodoptera littoralis was not below 80% in each case. For the same molecule, the percent effect (mortality or growth inhibition) at 200 ppm in the assay with Diabrotica balteata and in the assay on Plutella xylostella was not below 80% each time.

Turning to `C[C@H](Nc1ncnc2c(C(F)(F)F)cc(Cl)cc12)c1ncnn1-c1cc(C(=O)N2CCOCC2)ncn1` [Compound P32, [6-[5-[(1S)-1-[[6-chloro-8-(trifluoromethyl)quinazolin-4-yl]amino]ethyl]-1,2,4-triazol-1-yl]pyrimidin-4-yl]-morpholino-methanone], the percent control (mortality, anti-feedant effect or growth inhibition) at 200 ppm in the assay with Chilo suppressalis and in the assay with Spodoptera littoralis was not below 80% in each case. Also, the percent effect (mortality or growth inhibition) at 200 ppm with Plutella xylostella was not below 80%.

`C[C@H](Nc1ncnc2c(Cl)cc(I)cc12)c1ncnn1-c1cnc(C(N)=O)cn1` [Compound P77, 5-[5-[(1S)-1-[(8-chloro-6-iodo-quinazolin-4-yl)amino]ethyl]-1,2,4-triazol-1-yl]pyrazine-2-carboxamide]: in the assay on Chilo suppressalis, the percent control (mortality, anti-feedant effect or growth inhibition) at 200 ppm is not below 80%. Moreover, in the assay on Plutella xylostella, the percent effect (mortality or growth inhibition) at 200 ppm is not below 80%.

With `CON(C)C(=O)c1cc(-n2ncnc2[C@H](C)Nc2ncnc3c(C(F)(F)F)cc(Cl)cc23)ncn1` [Compound P27, 6-[5-[(1S)-1-[[6-chloro-8-(trifluoromethyl)quinazolin-4-yl]amino]ethyl]-1,2,4-triazol-1-yl]-N-methoxy-N-methyl-pyrimidine-4-carboxamide], the percent effect (mortality or growth inhibition) at 200 ppm in the assay with Diabrotica balteata and in the assay on Plutella xylostella was not below 80% in each case. Further, the percent control (mortality, anti-feedant effect or growth inhibition) at 200 ppm in the assay with Spodoptera littoralis is not below 80%.

With `C[C@H](Nc1ncnc2c(Cl)cc(I)cc12)c1ncnn1-c1cnc(C(=O)NCC#N)cn1` [Compound P70, 5-[5-[(1S)-1-[(8-chloro-6-iodo-quinazolin-4-yl)amino]ethyl]-1,2,4-triazol-1-yl]-N-(cyanomethyl)pyrazine-2-carboxamide], the percent control (mortality, anti-feedant effect or growth inhibition) at 200 ppm with Chilo suppressalis and in the assay on Spodoptera littoralis was not below 80% throughout. The percent effect (mortality or growth inhibition) at 200 ppm with Plutella xylostella was not below 80%.

For `C[C@H](Nc1ncnc2c(C(F)(F)F)cc(Cl)cc12)c1ncnn1-c1ccc(C(N)=O)nn1` [Compound P20, 6-[5-[(1S)-1-[[6-chloro-8-(trifluoromethyl)quinazolin-4-yl]amino]ethyl]-1,2,4-triazol-1-yl]pyridazine-3-carboxamide], in the assay on Chilo suppressalis, the percent control (mortality, anti-feedant effect or growth inhibition) at 200 ppm is not below 80%. The percent effect (mortality or growth inhibition) at 200 ppm in the assay with Diabrotica balteata and in the assay with Plutella xylostella was not below 80% each time.

As for `C[C@H](Nc1ncnc2c(C(F)(F)F)cc(Cl)cc12)c1ncnn1-c1cc(C(=O)NC2(C)CSC2)ncn1` [Compound P45, 6-[5-[(1S)-1-[[6-chloro-8-(trifluoromethyl)quinazolin-4-yl]amino]ethyl]-1,2,4-triazol-1-yl]-N-(3-methylthietan-3-yl)pyrimidine-4-carboxamide], the percent effect (mortality or growth inhibition) at 200 ppm in the assay on Diabrotica balteata and with Plutella xylostella was not below 80% each time. Besides, in the assay with Spodoptera littoralis, the percent control (mortality, anti-feedant effect or growth inhibition) at 200 ppm was not below 80%.

`C[C@H](Nc1ncnc2c(Cl)cc(I)cc12)c1ncnn1-c1ncc(C#N)s1` [WO 22/268648 P20, reference compound] showed a mortality at 50 ppm in the assay with Spodoptera littoralis (50 ppm) of 0%.

Consider `CC(Nc1ncnc2c(C(F)(F)F)cc(Cl)cc12)c1nccnc1-c1ncccn1` (stereo not drawn) [WO 21/083936 P.130, reference compound], for which, in the assay with Chilo suppressalis (50 ppm), the mortality at 50 ppm was 0%. The molecule also returned a mortality at 3.12 ppm in the assay with Spodoptera littoralis (3.12 ppm) of 0%.

For `CCN(C)C(=O)c1cnc(-n2ncnc2[C@H](C)Nc2ncnc3c(C(F)(F)F)cc(Cl)cc23)s1` [Compound P6, 2-[5-[(1S)-1-[[6-chloro-8-(trifluoromethyl)quinazolin-4-yl]amino]ethyl]-1,2,4-triazol-1-yl]-N-ethyl-N-methyl-thiazole-5-carboxamide], the percent control (mortality, anti-feedant effect or growth inhibition) at 200 ppm with Chilo suppressalis and in the assay on Spodoptera littoralis was not below 80% each time. The percent effect (mortality or growth inhibition) at 200 ppm in the assay on Plutella xylostella is not below 80%.

These data come from patent publication US20260132125A1, “PESTICIDALLY ACTIVE FUSED BICYCLIC HETEROAROMATIC COMPOUNDS” (priority 2022, published 2026).
